Data taken from ChEMBL document CHEMBL6096669, “Design and synthesis of novel derivatives of bisepoxylignans as potent anti-inflammatory agents involves the modulation of the M1/M2 microglia phenotype via TLR4/NF-κB signaling pathway” (Eur J Med Chem, 2025).
Activity calls are given as the source filed them. The rule behind the calls is not given here.

Columns and labels:
[1] = Acute toxicity in C57BL/6 mouse assessed as change in ALT level at 500 mg/kg, po single dose measured on day 8 by ALT/GPT test kit; format: organism-based; settings: in vivo
[2] = MRT in rat at 20 mg/kg, po single dose; format: ADME, organism-based; settings: in vivo
BV-2 [3] = test: Anti-inflammatory activity against LPS-induced mouse BV-2 cells assessed as decrease in LPS-induced IL-6 mRNA expression at 5 uM incubated for 4 hrs followed by LPS induced for 12 hrs by RT-PCR analysis relative to control; format: functional, cell-based; settings: time 16.0 hrs
BV-2 [4] = test: Anti-inflammatory activity against LPS-induced mouse BV-2 cells assessed as decrease in LPS-induced TNF-alpha mRNA expression at 5 uM incubated for 4 hrs followed by LPS induced for 12 hrs by RT-PCR analysis relative to control; format: functional, cell-based; settings: time 16.0 hrs
Mus musculus [5] = test: Anti-neuroinflammatory activity against LPS-induced male C57BL/6 mouse assessed as suppression of LPS-induced pathological changes in heart at 20 mg/kg, po administered for 3 days followed by induced with LPS by tail vein injection by hematoxylin-eosin staining based assay; format: functional, organism-based; settings: time 3.0 day
BV-2 [6] = test: Anti-inflammatory activity against LPS-induced mouse BV-2 cells assessed as decrease in LPS-induced TLR4 production incubated for 4 hrs followed by LPS induced for 24 hrs by […]; format: functional, cell-based; settings: dose 5-20 µM, time 28.0 hrs
Mus musculus [7] = test: Anti-neuroinflammatory activity against LPS-induced male C57BL/6 mouse assessed as suppression of LPS-induced pathological changes in liver at 20 mg/kg, po administered for 3 days followed by induced with LPS by tail vein injection by hematoxylin-eosin staining based assay; format: functional, organism-based; settings: time 3.0 day
Mus musculus [8] = test: Anti-neuroinflammatory activity against LPS-induced male C57BL/6 mouse assessed as suppression of LPS-induced p-NF-kappaB protein level at 20 mg/kg, po administered for 3 days followed by induced with LPS by tail vein injection by Western blot analysis; format: functional, organism-based; settings: time 3.0 day
[9] = Half life in rat at 20 mg/kg, po single dose; format: ADME, organism-based; settings: in vivo
BV-2 [10] = test: Inhibition of LPS-induced NO production in mouse BV-2 cells measured after 24 hrs followed by induced with LPS for another 24 hrs by ELISA relative to control; format: functional, cell-based
BV-2 [11] = test: Anti-inflammatory activity against LPS-induced mouse BV-2 cells assessed as decrease in LPS-induced TNFalpha production incubated for 4 hrs followed by LPS induced for 24 hrs by Western blotting analysis; format: functional, cell-based; settings: dose 5-20 µM, time 28.0 hrs
[12] = Acute toxicity in C57BL/6 mouse assessed as morphological changes in kidney by measuring signs of inflammation at 500 mg/kg, po single dose measured on day 8 by H and E staining based assay; format: organism-based; settings: in vivo, 192 h, time 8 day
BV-2 [13] = test: Anti-inflammatory activity against LPS-induced mouse BV-2 cells assessed as decrease in LPS-induced IL-1beta mRNA expression at 5 uM incubated for 4 hrs followed by LPS induced for 12 hrs by RT-PCR analysis relative to control; format: functional, cell-based; settings: time 16.0 hrs
Mus musculus [14] = test: Anti-neuroinflammatory activity against LPS-induced male C57BL/6 mouse assessed as suppression of LPS-induced pathological changes in kidney at 20 mg/kg, po administered for 3 days followed by induced with LPS by tail vein injection by hematoxylin-eosin staining based assay; format: functional, organism-based; settings: time 3.0 day
Mus musculus [15] = test: Anti-neuroinflammatory activity against LPS-induced male C57BL/6 mouse assessed as suppression of LPS-induced pathological changes in lung at 20 mg/kg, po administered for 3 days followed by induced with LPS by tail vein injection by hematoxylin-eosin staining based assay; format: functional, organism-based; settings: time 3.0 day
BV-2 [16] = test: Anti-inflammatory activity against LPS-induced mouse BV-2 cells assessed as decrease in LPS-induced iNOS mRNA expression at 10 to 20 uM incubated for 4 hrs followed by LPS induced for 12 hrs by RT-PCR analysis relative to control; format: functional, cell-based; settings: dose 10-20 µM, time 16.0 hrs

O=c1[nH]c2ccc(Nc3ncnc4c3ccn4Cc3ccc(F)cc3)cc2[nH]1
Activity [1]: Non-toxic | MRT [2]: 6.2 h | Activity (BV-2 [3]): Not active; No Significant Effect Observed Vs Lps | Activity (BV-2 [4]): Not active; No Significant Effect Observed Vs Lps | Activity (Mus musculus [5]): Active; Decreased Lps-Induced Visceral Injury (Cell Morphology, Hemorrhage, And Neutrophil Infiltration) And Maintaining Normal Cell Shape And Arrangement And Enhancing Infiltration Of Inflammatory Cells | Activity (BV-2 [6]): Dose-dependent-effect | Activity (Mus musculus [7]): Active; Decreased Lps-Induced Visceral Injury (Cell Morphology, Hemorrhage, And Neutrophil Infiltration) And Maintaining Normal Cell Shape And Arrangement And Enhancing Infiltration Of Inflammatory Cells | Activity (Mus musculus [8]): Active | half-life [9]: 5.91 h | inhibition (BV-2 [10]): Active | Activity (BV-2 [11]): Dose-dependent-effect | Activity [12]: Non-toxic | Activity (BV-2 [13]): Not active; No Significant Effect Observed Vs Lps | Activity (Mus musculus [14]): Active; Decreased Lps-Induced Visceral Injury (Cell Morphology, Hemorrhage, And Neutrophil Infiltration) And Maintaining Normal Cell Shape And Arrangement And Enhancing Infiltration Of Inflammatory Cells | Activity (Mus musculus [15]): Active; Decreased Lps-Induced Visceral Injury (Cell Morphology, Hemorrhage, And Neutrophil Infiltration) And Maintaining Normal Cell Shape And Arrangement And Enhancing Infiltration Of Inflammatory Cells | Activity (BV-2 [16]): Active
